Source: PubChem BioAssay (NCI)
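Results reflect a 48-hour exposure of cells in 96-well plates to compound at five concentrations. Here, GI50 denotes the concentration required for 50% inhibition of growth. Definition used: TGI = concentration required for complete inhibition of growth.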

How the values were obtained:
Test in all cases: NCI tumour cell line growth inhibition, 48 h
[1] = tested on: CAKI-1 renal
[2] = tested on: UO-31 renal
[3] = tested on: HOP-62 NSCLC
[4] = tested on: T-47D breast
[5] = tested on: OVCAR-3 ovarian
[6] = tested on: SK-MEL-5 melanoma
[7] = tested on: SK-OV-3 ovarian
[8] = tested on: SW-620 colon
[9] = tested on: SK-MEL-28 melanoma
[10] = tested on: KM12 colon
[11] = tested on: OVCAR-4 ovarian
[12] = tested on: SF-268 CNS
[13] = tested on: SNB-19 CNS
[14] = tested on: MOLT-4 leukemia
[15] = tested on: MDA-MB-231 breast
[16] = tested on: UACC-62 melanoma
[17] = tested on: EKVX NSCLC
[18] = tested on: NCI-H522 lung
[19] = tested on: SN12C renal
[20] = tested on: PC-3 prostate
[21] = tested on: HL-60(TB) leukemia
[22] = tested on: SF-295 CNS
[23] = tested on: CCRF-CEM leukemia
[24] = tested on: SR leukemia
[25] = tested on: HOP-92 NSCLC
[26] = tested on: MCF7 breast
[27] = tested on: HS 578T breast
[28] = tested on: TK-10 renal
[29] = tested on: K-562 leukemia
[30] = tested on: SK-MEL-2 melanoma
[31] = tested on: DU-145 prostate
[32] = tested on: OVCAR-8 ovarian
[33] = tested on: MALME-3M melanoma
[34] = tested on: RPMI-8226 leukemia
[35] = tested on: COLO 205 colon
[36] = tested on: 786-0 renal
[37] = tested on: UACC-257 melanoma
[38] = tested on: BT-549 breast
[39] = tested on: LOX IMVI melanoma
[40] = tested on: NCI-H460 lung
[41] = tested on: M14 melanoma
[42] = tested on: SF-539 CNS
[43] = tested on: MDA-MB-435
[44] = tested on: SNB-75 CNS
[45] = tested on: U251 CNS
[46] = tested on: RXF 393 renal
[47] = tested on: MDA-MB-468 breast
[48] = tested on: HT29 colon
[49] = tested on: HCT-116 colon
[50] = tested on: A498 renal
[51] = tested on: IGROV1 ovarian
[52] = tested on: ACHN renal
[53] = tested on: OVCAR-5 ovarian
[54] = tested on: NCI-H226 lung
[55] = tested on: NCI-H23 lung
[56] = tested on: HCC-2998 colon
[57] = tested on: HCT-15 colon
[58] = tested on: A549 NSCLC
[59] = tested on: NCI/ADR-RES ovarian

With `Nc1nc(Nc2ccc(Cl)cc2)n(Cc2cccc(Br)c2)n1` as the molecule, how does the GI50 [1] read?
The GI50 was 25.9 µM.

What about the TGI [1] of the same molecule?
The TGI was over 100 µM.

What about the GI50 [2] of the same molecule?
Its GI50 is 21 µM.

And the TGI [2]?
Its TGI is 90.4 µM.

And the GI50 [3]?
The GI50 was 49 µM.

What about the TGI [3] of the same molecule?
Its TGI is over 100 µM.

What about the GI50 [4] of the same molecule?
The GI50 was 30.5 µM.

What about the TGI [4] of the same molecule?
Its TGI is over 100 µM.

And the GI50 [5]?
The GI50 was 33.8 µM.

What about the TGI [5] of the same molecule?
The TGI was over 100 µM.

What about the GI50 [6] of the same molecule?
The GI50 was 17.4 µM.

And the TGI [6]?
The TGI was 33.5 µM.

And the GI50 [7]?
Its GI50 is 34.5 µM.

What about the TGI [7] of the same molecule?
Its TGI is over 100 µM.

What about the GI50 [8] of the same molecule?
The GI50 was 32.8 µM.

What about the TGI [8] of the same molecule?
The TGI was over 100 µM.

What about the GI50 [9] of the same molecule?
The GI50 was 26 µM.

What about the TGI [9] of the same molecule?
The TGI was over 100 µM.

What about the GI50 [10] of the same molecule?
Its GI50 is 33.3 µM.

And the TGI [10]?
The TGI was over 100 µM.

And the GI50 [11]?
The GI50 was 34 µM.

And the TGI [11]?
Its TGI is over 100 µM.

And the GI50 [12]?
The GI50 was 27.9 µM.

What about the TGI [12] of the same molecule?
The TGI was over 100 µM.

What about the GI50 [13] of the same molecule?
The GI50 was 30.7 µM.

What about the TGI [13] of the same molecule?
Its TGI is over 100 µM.

What about the GI50 [14] of the same molecule?
The GI50 was 25.6 µM.

What about the TGI [14] of the same molecule?
Its TGI is over 100 µM.

And the GI50 [15]?
Its GI50 is 30.5 µM.

And the TGI [15]?
The TGI was over 100 µM.

What about the GI50 [16] of the same molecule?
Its GI50 is 18.3 µM.

And the TGI [16]?
Its TGI is 61.1 µM.

What about the GI50 [17] of the same molecule?
Its GI50 is 25.2 µM.

And the TGI [17]?
Its TGI is over 100 µM.

And the GI50 [18]?
Its GI50 is 18.7 µM.

What about the TGI [18] of the same molecule?
Its TGI is 44.5 µM.

And the GI50 [19]?
The GI50 was 26.2 µM.

What about the TGI [19] of the same molecule?
The TGI was over 100 µM.

What about the GI50 [20] of the same molecule?
Its GI50 is 29.8 µM.

What about the TGI [20] of the same molecule?
The TGI was over 100 µM.

What about the GI50 [21] of the same molecule?
The GI50 was 24.6 µM.

What about the TGI [21] of the same molecule?
Its TGI is 71.8 µM.

What about the GI50 [22] of the same molecule?
The GI50 was 22.6 µM.

What about the TGI [22] of the same molecule?
The TGI was 74.9 µM.

And the GI50 [23]?
The GI50 was 36.8 µM.

And the TGI [23]?
Its TGI is over 100 µM.

And the GI50 [24]?
The GI50 was 57.6 µM.

And the TGI [24]?
The TGI was over 100 µM.

And the GI50 [25]?
Its GI50 is 19.4 µM.

What about the TGI [25] of the same molecule?
Its TGI is 63.8 µM.

And the GI50 [26]?
The GI50 was 25.1 µM.

What about the TGI [26] of the same molecule?
Its TGI is over 100 µM.

What about the GI50 [27] of the same molecule?
The GI50 was 24.4 µM.

What about the TGI [27] of the same molecule?
Its TGI is 96.3 µM.

And the GI50 [28]?
Its GI50 is 40 µM.

And the TGI [28]?
The TGI was over 100 µM.

What about the GI50 [29] of the same molecule?
Its GI50 is 28 µM.

And the TGI [29]?
Its TGI is over 100 µM.

And the GI50 [30]?
Its GI50 is 18.9 µM.

And the TGI [30]?
The TGI was 38.1 µM.

And the GI50 [31]?
Its GI50 is 41.1 µM.

What about the TGI [31] of the same molecule?
The TGI was over 100 µM.

What about the GI50 [32] of the same molecule?
Its GI50 is 35.7 µM.

And the TGI [32]?
Its TGI is over 100 µM.

What about the GI50 [33] of the same molecule?
The GI50 was 21.5 µM.

And the TGI [33]?
The TGI was 71.2 µM.

And the GI50 [34]?
The GI50 was 31.6 µM.

What about the TGI [34] of the same molecule?
Its TGI is over 100 µM.

What about the GI50 [35] of the same molecule?
The GI50 was 37.4 µM.

What about the TGI [35] of the same molecule?
The TGI was over 100 µM.

And the GI50 [36]?
The GI50 was 34.9 µM.

And the TGI [36]?
The TGI was over 100 µM.

What about the GI50 [37] of the same molecule?
Its GI50 is 33.6 µM.

What about the TGI [37] of the same molecule?
The TGI was over 100 µM.

What about the GI50 [38] of the same molecule?
The GI50 was 38.8 µM.

And the TGI [38]?
Its TGI is 92 µM.

And the GI50 [39]?
The GI50 was 17.2 µM.

And the TGI [39]?
The TGI was 35.9 µM.

And the GI50 [40]?
The GI50 was 23.7 µM.

And the TGI [40]?
The TGI was 57.5 µM.

What about the GI50 [41] of the same molecule?
Its GI50 is 29.5 µM.

And the TGI [41]?
Its TGI is over 100 µM.

And the GI50 [42]?
Its GI50 is 22.2 µM.

What about the TGI [42] of the same molecule?
Its TGI is 62.1 µM.

What about the GI50 [43] of the same molecule?
Its GI50 is 19 µM.

What about the TGI [43] of the same molecule?
The TGI was 42.2 µM.

What about the GI50 [44] of the same molecule?
Its GI50 is 15.5 µM.

And the TGI [44]?
Its TGI is 60.6 µM.

And the GI50 [45]?
Its GI50 is 31.3 µM.

And the TGI [45]?
Its TGI is over 100 µM.

What about the GI50 [46] of the same molecule?
The GI50 was 17 µM.

And the TGI [46]?
The TGI was 60.5 µM.

What about the GI50 [47] of the same molecule?
Its GI50 is 16.8 µM.

And the TGI [47]?
Its TGI is 45.3 µM.

What about the GI50 [48] of the same molecule?
Its GI50 is 35.6 µM.

What about the TGI [48] of the same molecule?
The TGI was over 100 µM.

And the GI50 [49]?
Its GI50 is 31.3 µM.

What about the TGI [49] of the same molecule?
Its TGI is over 100 µM.

What about the GI50 [50] of the same molecule?
Its GI50 is 26.7 µM.

And the TGI [50]?
The TGI was 85.9 µM.

What about the GI50 [51] of the same molecule?
Its GI50 is 30.7 µM.

And the TGI [51]?
Its TGI is over 100 µM.

What about the GI50 [52] of the same molecule?
Its GI50 is 29.3 µM.

What about the TGI [52] of the same molecule?
The TGI was over 100 µM.

What about the GI50 [53] of the same molecule?
The GI50 was 22.3 µM.

And the TGI [53]?
The TGI was 73.5 µM.

And the GI50 [54]?
The GI50 was 25.3 µM.

And the TGI [54]?
Its TGI is over 100 µM.

And the GI50 [55]?
Its GI50 is 29 µM.

And the TGI [55]?
The TGI was over 100 µM.

And the GI50 [56]?
Its GI50 is 27 µM.

What about the TGI [56] of the same molecule?
The TGI was over 100 µM.

What about the GI50 [57] of the same molecule?
Its GI50 is 27 µM.

What about the TGI [57] of the same molecule?
Its TGI is over 100 µM.

What about the GI50 [58] of the same molecule?
Its GI50 is 32.9 µM.

What about the TGI [58] of the same molecule?
The TGI was over 100 µM.

And the GI50 [59]?
The GI50 was 20.2 µM.

And the TGI [59]?
The TGI was 51.5 µM.
